The results in this text go back to ChEMBL document CHEMBL1123698, “alpha-Methylproline-containing renin inhibitory peptides: in vivo evaluation in an anesthetized, ganglion-blocked, hog renin infused rat model” (J Med Chem, 1987).

Square brackets hold non-standard residues; d marks the D form. Peptide text beside a SMILES is read from it. * marks the point of attachment. Sta = CC(C)C[C@H](N)[C@@H](O)CC(=O)O; NHCH2(2-pyridyl) = c1ccc(CN*)nc1; αMeP = C[C@@]1(C(=O)O)CCCN1; Boc = CC(C)(C)OC(=O)*

For one assay, the target named is T1, Renin (Homo sapiens, UniProt P00797).
T1 sequence (P00797 whole entry): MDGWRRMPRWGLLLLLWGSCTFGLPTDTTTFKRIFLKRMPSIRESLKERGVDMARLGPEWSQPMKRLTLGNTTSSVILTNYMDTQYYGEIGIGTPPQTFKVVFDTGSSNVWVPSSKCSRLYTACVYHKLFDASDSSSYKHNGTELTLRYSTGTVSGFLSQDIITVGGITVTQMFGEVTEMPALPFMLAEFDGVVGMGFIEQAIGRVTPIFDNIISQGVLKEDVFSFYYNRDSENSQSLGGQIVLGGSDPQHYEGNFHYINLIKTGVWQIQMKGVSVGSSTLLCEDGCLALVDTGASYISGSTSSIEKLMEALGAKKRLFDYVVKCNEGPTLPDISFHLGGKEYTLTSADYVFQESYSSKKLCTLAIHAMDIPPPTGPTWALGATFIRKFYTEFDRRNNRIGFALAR
In words: In vitro inhibition against human plasma renin. It counts as cell-free.

In another assay the target is Renin (Sus scrofa). In words: In vitro inhibition against hog renin.

For the compound `CC[C@H](C)[C@H](NC(=O)[C@@H](NC[C@H](CC(C)C)NC(=O)[C@H](Cc1c[nH]cn1)NC(=O)[C@H](Cc1ccccc1)NC(=O)[C@]1(C)CCCN1C(=O)OC(C)(C)C)C(C)C)C(=O)NCc1ccccn1`, the IC50 against Renin was found to be 0.043 µM.
At Renin (Sus scrofa), `CC[C@H](C)[C@H](NC(=O)[C@@H](NC[C@H](O)[C@H](CC(C)C)NC(=O)[C@H](Cc1c[nH]cn1)N(C)C(=O)[C@H](Cc1ccccc1)NC(=O)[C@@H]1CCCN1C(=O)OC(C)(C)C)C(C)C)C(=O)NCc1ccccn1` registered a 50% inhibitory concentration (IC50) of 0.04 µM.
For `CC[C@H](C)[C@H](NC(=O)C[C@H](O)[C@H](CC(C)C)NC(=O)[C@H](Cc1ccccc1)NC(=O)[C@H](Cc1ccccc1)NC(=O)[C@]1(C)CCCN1C(=O)OC(C)(C)C)C(=O)NCc1ccccn1` (Boc-[αMeP]FF[Sta]I-{NHCH2(2-pyridyl)}), the IC50 against Renin was found to be 0.036 µM.
For the compound `CC[C@H](C)[C@H](NC(=O)C[C@H](O)[C@H](CC(C)C)NC(=O)[C@H](Cc1c[nH]cn1)NC(=O)[C@H](Cc1ccccc1)NC(=O)[C@]1(C)CCCN1C(=O)OC(C)(C)C)C(=O)NCc1ccccn1` (Boc-[αMeP]FH[Sta]I-{NHCH2(2-pyridyl)}), the midpoint of inhibition on Renin, the IC50, lay at 0.0035 µM.
